Measured values taken from the supplement of paper PMC10307832.

What was measured:
Assay in all cases: relative viability (nuclei count vs DMSO), 5 days (fraction); higher = more cells survive
[1] = compound: O=C(/C=C/c1ccccc1)NC(NC(=S)Nc1cccc2cccnc12)C(Cl)(Cl)Cl [Salubrinal] + Cc1nc(Nc2ncc(C(=O)Nc3c(C)cccc3Cl)s2)cc(N2CCN(CCO)CC2)n1 [Dasatinib] (partner 0.075 µM)
Procedure, shortened: (§1)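 Medians of duplicate plates are given as relative viability. That measure is the nuclei count in treated wells divided by the count in vehicle wells. Counts were taken on 4× images of lung cancer cell lines in 1536-well plates, 5 days after pin-tool dosing the day after seeding with one drug alone or a fixed anchor-drug dose plus five library-drug doses (not always all listed) in √10 steps.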

[2] = compound: O=C(/C=C/c1ccccc1)NC(NC(=S)Nc1cccc2cccnc12)C(Cl)(Cl)Cl [Salubrinal] + CCNC(=O)c1noc(-c2cc(C(C)C)c(O)cc2O)c1-c1ccc(CN2CCOCC2)cc1 [Luminespib] (partner 0.01 µM)
Procedure, shortened: as §1

[3] = compound: Cc1ccc2nc(NCCN)c3ncc(C)n3c2c1 + CC(C)C[C@H](NC(=O)[C@H](Cc1ccccc1)NC(=O)c1cnccn1)B(O)O [Bortezomib] (partner 0.002 µM)
Procedure, shortened: as §1

[4] = compound: Cc1ccc2nc(NCCN)c3ncc(C)n3c2c1 + Nc1ncn([C@H]2C[C@H](O)[C@@H](CO)O2)c(=O)n1 [Decitabine] (partner 2 µM)
Procedure, shortened: as §1

Row | Cell Line | relative viability ([1]; first compound 0.08 µM) | relative viability ([1]; first compound 0.253 µM) | relative viability ([1]; first compound 0.8 µM) | relative viability ([1]; first compound 2.53 µM) | relative viability ([1]; first compound 8 µM) | relative viability ([2]; first compound 0.08 µM) | relative viability ([2]; first compound 0.253 µM) | relative viability ([2]; first compound 0.8 µM) | relative viability ([2]; first compound 2.53 µM) | relative viability ([2]; first compound 8 µM) | relative viability ([3]; first compound 0.04 µM) | relative viability ([3]; first compound 0.1265 µM) | relative viability ([3]; first compound 0.4 µM) | relative viability ([3]; first compound 1.265 µM) | relative viability ([3]; first compound 4 µM) | relative viability ([4]; first compound 0.04 µM) | relative viability ([4]; first compound 0.1265 µM) | relative viability ([4]; first compound 0.4 µM) | relative viability ([4]; first compound 1.265 µM) | relative viability ([4]; first compound 4 µM)
1 | NCI-H2023 | 0.707 | 0.489 | 0.671 | 0.593 | 0.343 | 0.884 | 0.703 | 0.874 | 0.517 | 0.884 | 1.17 | 1.01 | 0.938 | 1.16 | 0.858 | 0.225 | 0.227 | 0.241 | 0.256 | 0.2
2 | NCI-H2085 | 0.228 | 0.227 | 0.258 | 0.249 | 0.246 | 0.473 | 0.47 | 0.562 | 0.366 | 0.496 | 1.13 | 1.02 | 1.04 | 1.05 | 1.03 | 0.56 | 0.556 | 0.522 | 0.534 | 0.524
3 | NCI-H2087 | 0.954 | 0.62 | 1.15 | 1.01 | 0.733 | 0.151 | 0.164 | 0.16 | 0.187 | 0.183 | 0.756 | 0.955 | 0.66 | 0.824 | 0.864 | 0.308 | 0.362 | 0.249 | 0.285 | 0.299
4 | NCI-H2126 | 0.66 | 0.554 | 0.62 | 0.592 | 0.46 | 0.958 | 0.833 | 1.03 | 0.951 | 0.877 | 1.15 | 1.1 | 1.18 | 1.16 | 1.13 | 0.6 | 0.571 | 0.62 | 0.599 | 0.563
5 | NCI-H2347 | 0.295 | 0.327 | 0.317 | 0.346 | 0.318 | 0.786 | 0.63 | 0.381 | 0.512 | 0.403 | 1.09 | 0.919 | 0.932 | 1.14 | 1.07 | 0.605 | 0.664 | 0.603 | 0.645 | 0.585
6 | NCI-H2405 | 0.252 | 0.223 | 0.224 | 0.2 | 0.204 | 0.591 | 0.865 | 0.62 | 0.612 | 0.668 | 1.03 | 1.03 | 0.964 | 0.969 | 0.918 | 0.706 | 0.713 | 0.747 | 0.728 | 0.741
